From patent US10544150B2, “NK-3 receptor selective antagonist compounds, pharmaceutical composition and methods for use in NK-3 receptors mediated disorders” (Ogeda SA, priority 2010, dated 2020)

How the values were obtained:
[1] = target: human NK-3 receptor (Homo sapiens (Human), UniProt P29371); assay: 3H-SB222200 binding competition assay with human NK-3 receptor; conditions: 3H-SB222200 displacement, CHO cell membranes expressing human NK3 receptor; read-out: Ki range
Method in brief: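 Membranes from CHO cells expressing human NK3 receptor incubated with 5 nM 3H-SB222200 and test compound in HEPES 25 mM/NaCl 0.1M/CaCl2 1 mM/MgCl2 5 mM/BSA 0.5%/saponin 10 μg/ml, pH 7.4. Bound radioligand counted after filtration; Ki calculated, reported in bands (+++ <500 nM to # >5 μM).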

[2] = system: circulating levels of luteinizing hormone (LH); assay: Castrated male rat model, circulating levels of luteinizing hormone (LH); assay type: in vivo; conditions: castrated male SD rats, single intravenous dose (156 and 144: 10 mg/kg; 71: 15 mg/kg; 114: 20 mg/kg), 60 min post dosing (156 also 120 min), vs. baseline
[3] = system: circulating levels of testosterone; assay: Gonad-intact adult male rat, circulating levels of testosterone; assay type: in vivo; conditions: gonad-intact male SD rats, single intravenous 20 mg/kg dose, over 420 min (AUC)
Protocol: Plasma testosterone levels are represented as an integrated testosterone response (AUC) over a 420 min period following dosing. […] Membrane suspensions were prepared from these cells. The following radioligand: [^125I]-His-MePhe7-Neurokinin B (PerkinElmer Cat # NEX285) was used in this assay. Binding assays were performed in a […]/1 mM CaCl2/5 mM MgCl2/0.5% BSA/10 μg/ml Saponin, at pH 7.4. Binding assays consisted of 25 μl of membrane suspension (approximately 5 μg protein/well in a 96 well plate), 50 μl of compound or reference ligand (MePhe7-Neurokinin B) at increasing concentrations (diluted in assay buffer) and 0.09 nM [^125I]-His-MePhe7-Neurokinin B. The plate was incubated 60 min at 25° C. in a water bath and then filtered over GF/C filters (Perkin Elmer, 6005174, presoaked in assay buffer without saponine for 2 h at room temperature) with a Filtration unit (Perkin Elmer). The radioactivity retained on the filters was measured by using the TopCount-NXT reader (Packard). […]

Sequence of human NK-3 receptor (P29371 whole entry): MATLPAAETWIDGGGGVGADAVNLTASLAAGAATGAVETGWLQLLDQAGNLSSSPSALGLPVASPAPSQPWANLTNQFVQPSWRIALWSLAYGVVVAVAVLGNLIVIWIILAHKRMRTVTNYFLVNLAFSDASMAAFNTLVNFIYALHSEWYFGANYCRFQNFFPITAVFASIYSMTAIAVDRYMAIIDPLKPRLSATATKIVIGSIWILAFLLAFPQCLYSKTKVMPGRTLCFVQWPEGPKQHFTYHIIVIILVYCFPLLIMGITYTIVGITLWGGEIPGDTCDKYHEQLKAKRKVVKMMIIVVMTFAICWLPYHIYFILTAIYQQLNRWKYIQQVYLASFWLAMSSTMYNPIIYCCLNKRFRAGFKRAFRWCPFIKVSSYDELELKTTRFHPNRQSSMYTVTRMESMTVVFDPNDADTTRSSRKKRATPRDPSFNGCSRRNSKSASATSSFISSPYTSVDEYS

## C[C@@H]1c2nnc(-c3csc(-c4ccc(F)cc4F)n3)n2CCN1C(=O)c1ccc(-c2cccs2)cc1 [Compound 156, (R)-(3-(2-(2,4-difluorophenyl)thiazol-4-yl)-8-methyl-5,6-dihydro-[1,2,4]triazolo[4,3-a]pyrazin-7(8H)-yl)(4-(thiophen-2-yl)phenyl)methanone]
[1]
  Ki: < 500 nM
[2]
  effect on LH serum levels: significantly suppressed GnRH-mediated elevation of LH
[3]
  effect on plasma testosterone levels: significantly suppressed plasma testosterone levels
